Measurements published in PubChem BioAssay (NCI).
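The compound was tested at five concentrations on cells cultured in 96-well plates, with a 48-hour exposure period. GI50 marks 50% less growth. TGI is the concentration that stops growth completely.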

Assays:
Assay in all cases: NCI anticancer screen, dose series, 48 h
[1] = test system: OVCAR-4 ovarian
[2] = test system: HL-60(TB) leukemia
[3] = test system: NCI-H226 lung
[4] = test system: A498 renal
[5] = test system: SF-295 CNS
[6] = test system: TK-10 renal
[7] = test system: OVCAR-3 ovarian
[8] = test system: M14 melanoma
[9] = test system: NCI-H522 lung
[10] = test system: K-562 leukemia

SMILES	TGI [1] [µM]	TGI [2] [µM]	TGI [3] [µM]	TGI [4] [µM]	TGI [5] [µM]	TGI [6] [µM]	TGI [7] [µM]	TGI [8] [µM]	TGI [9] [µM]	TGI [10] [µM]	GI50 [1] [µM]	GI50 [2] [µM]	GI50 [3] [µM]	GI50 [4] [µM]	GI50 [5] [µM]	GI50 [6] [µM]	GI50 [7] [µM]	GI50 [8] [µM]	GI50 [9] [µM]	GI50 [10] [µM]
CC[N+](C)(CC)CCC(O)(c1ccccc1)c1ccccc1	> 100	> 100	> 100	> 100	> 100	> 100	> 100	> 100	> 100	> 100	–	–	–	–	–	–	–	–	–	–
CCOC(=O)C1(Br)C(c2ccccc2)NC(=O)NC1(C)Br (stereo unspecified)	> 100	46.4	> 100	> 100	> 100	> 100	> 100	> 100	> 53.2	> 94.5	30.3	–	–	–	–	–	–	–	–	–
COc1ccc(N2Cc3cnc(Nc4ccccc4)nc3N([C@@H]3CC[C@@H](O)C3)C2=O)cc1	> 25	> 20.7	> 25	1.2	> 25	12.9	> 25	> 25	> 18.8	> 25	2.43	4.45	0.523	0.128	17.6	1.54	10.9	3.7	2.93	5.67
CC1CC2CC(=O)CC3(C1)C2CCCN3CCCO (stereo unspecified)	> 100	> 100	> 100	> 100	> 100	> 100	> 100	> 100	> 100	> 100	–	–	–	–	–	–	–	–	–	–
COC(=O)C(C(=O)C(=O)Nc1ccc(C(F)(F)F)cc1[N+](=O)[O-])c1csc(-n2nc(-c3ccccc3)cc2-c2ccccc2)n1 (stereo unspecified)	> 100	> 100	> 100	> 100	> 100	> 100	> 100	> 100	> 100	> 100	–	–	–	–	–	–	–	–	–	–
C=C(CCCCCCCCC)CC(=O)SCCNC(=O)CCNC(=O)C(O)C(C)(C)COP(=O)(O)OP(=O)(O)OCC1OC(n2cnc3c(N)ncnc32)C(O)C1OP(=O)(O)O (stereo unspecified)	> 100	> 90.9	> 100	> 100	> 100	> 100	> 100	65	> 100	> 31.6	–	–	–	–	–	–	–	–	–	–
C=CCN(/C=C1/C(=O)O[C@H](COC)[C@@]2(C)C1=C(O)C(=O)C1=C2[C@H](OC(C)=O)C[C@]2(C)C(=O)CC[C@@H]12)CC=C	> 10	> 10	> 10	0.103	> 10	> 7.79	> 10	> 10	> 10	> 10	2.72	0.286	2.57	0.0205	0.573	0.193	0.562	2.95	1.41	> 8.1
C[C@H](NC(=O)[C@@H]1CSSC[C@@H](NC(=O)c2nc3ccccc3cc2O)C(=O)NCC(=O)N1C)c1ccccc1	18.3	4.78	17.4	33.5	16.3	15.5	1.35	9.76	10.2	3.13	7.95	1.2	8.87	15	7.44	8.06	0.584	0.318	3.13	0.663
